According to article PMC6934184, “Selective DNA-PKcs inhibition extends the therapeutic index of localized radiotherapy and chemotherapy” (The Journal of Clinical Investigation, 2019):

Biological target: T1, STK4 (MST1) (Homo sapiens, UniProt Q13043)
T1 construct: purchased Thermo Fisher Scientific (Life Technologies) SelectScreen
Experiment: SelectScreen Z'LYTE
Format: biochemical
Outline: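 NU5455 was profiled across the SelectScreen Broad panel of kinase activity and binding assays. Z'LYTE reactions such as CSF1R ran at apparent Km ATP, while the Adapta CAMK1 assay used ATP listed as 10. Values are given as percent.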

T1 sequence (Q13043 whole entry): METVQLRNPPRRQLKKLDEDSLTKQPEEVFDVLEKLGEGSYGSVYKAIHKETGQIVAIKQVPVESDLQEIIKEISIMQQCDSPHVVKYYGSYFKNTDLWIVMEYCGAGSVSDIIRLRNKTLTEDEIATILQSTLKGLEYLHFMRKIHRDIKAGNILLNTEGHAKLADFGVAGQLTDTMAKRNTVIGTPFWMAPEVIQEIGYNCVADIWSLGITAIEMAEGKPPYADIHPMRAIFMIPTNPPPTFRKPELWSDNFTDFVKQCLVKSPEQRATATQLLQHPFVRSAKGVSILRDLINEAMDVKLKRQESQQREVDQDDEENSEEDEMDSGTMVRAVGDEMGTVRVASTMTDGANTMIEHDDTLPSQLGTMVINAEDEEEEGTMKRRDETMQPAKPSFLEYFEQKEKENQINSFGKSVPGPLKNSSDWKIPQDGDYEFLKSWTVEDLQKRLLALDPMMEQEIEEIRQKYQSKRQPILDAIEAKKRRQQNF

CN(C(=O)CN1CCOCC1)c1ccc2sc3c(-c4cccc5c(=O)cc(N6CC7CCC(C6)O7)oc45)cccc3c2c1 [NU5455]
inhibition at 1 µM: -4.4%
